In brackets after ≈: the same amount, converted by molar mass. Several values for one entry are separate records, joined by “and”; a condition that tells them apart may be missing. Equal entries are not always repeated. Entries after “also recorded” stand apart in the source; their conditions may differ. Where two headings read alike, the source gives them in different places.
Assays:
[1] = system: A. fumigatus ATCC-46645; assay: Antifungal growth inhibition assay, A. fumigatus; type: cell-based, Aspergillus fumigatus; details: for inhibition at 7.2 µg/mL / IC50: Aspergillus fumigatus; for inhibition at 7.2 µg/mL: at 7.2 µg/mL (optimal concentration), atypical profile, Eagle effect, read-out: maximum inhibition against A. fumigatus; for decreasing inflection point against A. fumigatus: less inhibition at higher concentrations (Eagle effect)
Experimental: (§1) Purification fractions and purified compounds 1–3 and 5 were tested against a wide panel of antimicrobial assays for the growth inhibition of human pathogens including MRSA MB-5393, A. baumannii MB-5973, P. aeruginosa MB-5919, A. fumigatus ATCC-46645, and C. albicans ATCC-64124 as 10-point curves with 1:2 dilutions starting at 128 μg/mL in duplicate, following previously described methodologies. Most of the pathogens were acquired from the American Type Culture Collection (ATCC)(Manassas, VA, USA), except for those already present in our MEDINA bacteria collection (MB). Pathogen panel investigated was selected according to typical reference strains and procedures indicated by the […].
(§2) The antifungal assay was performed following this methodology; briefly, a thawed stock inoculum suspension from a cryovial of A. fumigatus and C. albicans was streaked onto PDA and Sabouraud Dextrose Agar medium, respectively, and suspended in RPMI-1640 modified medium and incubated at 37 °C for 24 h. Spores concentration of A. fumigatus was determined by counting in Neubauer chamber in order to dilute the culture and obtain an assay inoculum of 2.5 × 10^4 spores/mL. For C. albicans, the OD660 was adjusted to 0.25 using RPMI-1640 modified as diluent and blank. Then, a dilution from the adjusted inoculum was prepared at 1/100 to inoculate 96-well assay plates.
(§3) For the assay, 90 μL/well of the diluted inoculum was mixed with 1.6 μL/well of compound dissolved in DMSO and 8.4 μL/well of MHII or BHI medium for Gram-negative and Gram-positive strains, respectively. Vancomycin was included as an internal plate control for MRSA. A rifampicin, aztreonam, and amphotericin B dose-response curve was used as a positive control against P. aeruginosa, A. baumannii and A. fumigatus, and C. albicans, respectively. Each compound was tested as a 10-point dose-response curve by 1:2 serial dilutions in DMSO starting at 128 µg/mL in duplicate. Total growth was measured using the EnVision® (Redwood City, CA, USA) Multilabel plate reader (Perkin Elmer) with two readings, one at initial time and one after which the microorganism was incubated at 37 °C for 18–20 hours. For the A. fumigatus assay, total growth was measured with a single reading after the incubation.

[2] = system: MRSA MB-5393; assay: Gram-positive antibacterial growth inhibition assay, MRSA; type: cell-based, methicillin-resistant Staphylococcus aureus; details: for activity against MRSA (in words): pure compound, up to 128 µg/mL
Experimental: as §1
For Gram-positive MRSA, a thawed stock inoculum suspension from a cryovial of this microorganism was streaked onto brain heart infusion (BHI) agar plate and incubated at 37 °C overnight to obtain isolated colonies. Single colonies were inoculated into 10 mL of BHI broth medium in 250 mL Erlenmeyer flask and incubated overnight at 37 °C with shaking at 220 rpm and then diluted in order to obtain an assay inoculum of 1.1 × 10^6 CFU/mL [52].
as §3

[3] = system: human hepatoma cell line HepG2 (ATCC HB-8065); assay: MTT cytotoxicity bioassay; type: cell-based; details: 72 h; for cytotoxicity against HepG2 (in words): up to 40 µg/mL
Experimental: Pure compounds were assayed against the human hepatoma cell line HepG2 (ATCC HB-8065) in an MTT test as 20-point curves with 1:2 dilutions starting at 40 μg/mL in triplicate. Cells were seeded at 10.000 cells/well in a 96-well plate (Corning 96-well TC-treated microplates) for 24 h and after addition of compounds 1–3 and 5 plates were incubated for 72 h. MMS (methylmethanesulfonate, Sigma-Aldrich, 4 mM) was used as the positive control, and DMSO 0.5% as the negative control. After addition of MMT dye (thiazolyl blue tetrazoliumbromide, ACROS Organics), cells were incubated for 2–3 h and supernatant was removed. Resulting formazan crystals were finally dissolved by means of 100 µL DMSO (100%) and absorbance was measured at 570 nm. The obtained data was analyzed using Genedata Screener software (Genedata, Inc., Basel, Switzerland) and Prim 9.4.1 software, from GraphPad was used for titrations representation.

[4] = system: A. baumannii MB-5973; assay: Gram-negative antibacterial growth inhibition assay, A. baumannii; type: cell-based, Acinetobacter baumannii; details: for maximum activity of growth inhibition plateau, A. baumannii: at concentrations higher than 10 µg/mL; for activity against A. baumannii (in words): pure compound, up to 128 µg/mL
Experimental: as §1
(§4) Gram-negative antibacterial assay was performed following this procedure; thawed stock inoculum from vials was streaked onto MHII agar plates and incubated overnight at 37 °C. Isolated colonies were selected and inoculated in 25 mL of MHII liquid growth medium in 250 mL Erlenmeyer flasks overnight at 37 °C. MHII liquid growth medium was used in a 96-well plate assay, adjusting at 5 × 10^5 colony forming units (cfu)/mL (OD600 nm).
as §3

[5] = system: P. aeruginosa MB-5919; assay: Gram-negative antibacterial growth inhibition assay, P. aeruginosa; type: cell-based, Pseudomonas aeruginosa; details: for maximum activity of growth inhibition plateau, P. aeruginosa: at concentrations higher than 10 µg/mL; for activity against P. aeruginosa (in words): pure compound, up to 128 µg/mL
Experimental: as §1, §4, §3

[6] = system: C. albicans ATCC-64124; assay: Antifungal growth inhibition assay, C. albicans; type: cell-based, Candida albicans
Experimental: as §1, §2, §3

[7] = system: Bacillus subtilis; set-up: method as in PMID 8436549; details: previously reported; cited from earlier work
[8] = system: S. aureus; set-up: method as in PMID 8436549; details: previously reported; cited from earlier work
[9] = system: Streptococcus faecalis; set-up: method as in PMID 8436549; details: previously reported; cited from earlier work
[10] = system: Saccharomyces cerevisiae; set-up: method as in PMID 28074052; details: previously reported; cited from earlier work

SMILES	inhibition at 7.2 µg/mL ([1]; ATCC46645)	decreasing inflection point against A. fumigatus [1]	activity against MRSA (in words) [2]	cytotoxicity against HepG2 (in words) [3]	maximum activity of growth inhibition plateau, A. baumannii [4]	activity against A. baumannii (in words) [4]	maximum activity of growth inhibition plateau, P. aeruginosa [5]	activity against P. aeruginosa (in words) [5]	further results
COC(=O)c1cc(O)c(O)c(C(=O)NCCC(=O)N[C@@H](CCCN(O)C(=O)[C@H](CO)NC(=O)CCNC(=O)c2nc(C(=O)OC)cc(O)c2O)C(=O)OC)n1 [Compound 2, kribbellichelin B]	40%	~50 µg/mL	no activity	nor significant cytotoxic activity; also recorded: no relevant cytotoxicity	45%	minor inhibitory properties	30%	minor inhibitory properties	–
COC(=O)c1cc(O)c(O)c(C(=O)NCCC(=O)N[C@@H](CCCN(O)C(=O)[C@H](CO)NC(=O)CCNC(=O)c2nc(C(=O)OC)cc(O)c2O)C(=O)O)n1 [Compound 1, kribbellichelin A]	40%	~50 µg/mL	no activity	nor significant cytotoxic activity; also recorded: no relevant cytotoxicity	45%	minor inhibitory properties	30%	minor inhibitory properties	IC50 versus C. albicans ([6]; C. albicans ATCC-64124, 10-point curve from 128 µg/mL, duplicate): 11.72 µg/mL (≈ 15.3 µM); IC50 ([6]; C. albicans ATCC-64124, molar value in brackets, read-out: IC50 versus C. albicans): 15.3 µM; IC50 ([6]; Candida albicans, ATCC64124, C. albicans ATCC-64124, 10-point curve from 128 µg/mL, duplicate, read-out: IC50 versus C. albicans): 11.7 µg/mL; IC50 ([6]; Candida albicans, ATCC64124, C. albicans ATCC-64124, molar value in brackets, read-out: IC50 versus C. albicans): 15.2 µM
CC(C)[C@H]1C(=O)OC[C@@H](NC(=O)c2nc3ccccc3cc2O)C(=O)N2CCCC[C@H]2C(=O)NCC(=O)N(C)CC(=O)N(C)[C@@H](C(C)C)C(=O)OC[C@@H](NC(=O)c2nc3ccccc3cc2O)C(=O)N2CCCC[C@@H]2C(=O)NCC(=O)N(C)CC(=O)N1C [Compound 3, sandramycin]	–	–	–	–	–	no antibacterial activity	–	no antibacterial activity	antibiotic activity versus Bacillus subtilis (in words) [7]: strong antibiotic activity; antibiotic activity versus S. aureus (in words) [8]: strong antibiotic activity; IC50 ([1]; ATCC46645, read-out: IC50 against A. fumigatus): 5.72 µg/mL and 4.69 µM; IC50 ([2]; Staphylococcus aureus, MRSA, read-out: IC50 versus MRSA MB-5393): 0.31 µg/mL and 250 nM; ED50 cytotoxic activity against HepG2 ([3]; molar value in brackets): 1.29 nM; IC50 ([6]; Candida albicans, ATCC64124, read-out: IC50 versus C. albicans): 7.55 µg/mL and 6.19 µM; antibiotic activity versus Streptococcus faecalis (in words) [9]: strong antibiotic activity
CC(C)CCCCCCCCCCCCCOC[C@@H](O)CO[C@H]1O[C@H](C(=O)O)[C@@H](O[C@H]2O[C@H](CO)[C@@H](O)[C@H](O)[C@H]2O)[C@H](O)[C@H]1O [Compound 5, kribelloside C]	–	–	no activity	no relevant cytotoxicity	–	no activity	–	no activity	IC50 ([1]; ATCC46645, A. fumigatus ATCC-46645, read-out: IC50 against A. fumigatus): 13.7 µg/mL (≈ 20.8 µM); antifungal activity versus Saccharomyces cerevisiae (in words) [10]: interesting activities as an antifungal agent; activity against C. albicans (in words) ([6]; pure compound, up to 128 µg/mL): no activity; also recorded: not observed

— article PMC9570599, “Kribbellichelins A and B, Two New Antibiotics from Kribbella sp. CA-293567 with Activity against Several Human Pathogens” (Molecules, 2022)
